Laboratory results: patent publication US20240124504A1, “AROMATIC HETEROCYCLIC COMPOUND, AND PHARMACEUTICAL COMPOSITION AND APPLICATION THEREOF” (GT APEIRON THERAPEUTICS LIMITED, priority 2020, published 2024)

What was measured:
[1] = biological target: CDK7/cyclinH/MAT1 complex (Homo sapiens, UniProt P50613); assay: In-vitro enzymatic inhibitory activity testing, CDK7 inhibition assay (Caliper EZ Reader II); type: biochemical; details: CDK7/cyclinH/MAT1 6 nM, 180 min at 27° C.
How it was run: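 Enzyme preincubated 10 min with compound, then peptide substrate plus ATP added in 80 mM MES pH 6.5, 10 mM MgCl2 buffer; 180 min at 27 °C, stopped with EDTA.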

[2] = biological target: T1, CDK12 (aa686-1082)/cyclinK complex (Homo sapiens, UniProt Q9NYV4); assay: In-vitro enzymatic inhibitory activity testing, CDK12 inhibition assay (Caliper EZ Reader II); type: biochemical; details: CDK12/cyclinK 50 nM, 180 min at 27° C.; read-out: CDK12 IC50
T1 construct: A CDK12 (aa686-1082)/cyclinK complex (50 nM)
T1 sequence (Q9NYV4 686-1082, species assumed): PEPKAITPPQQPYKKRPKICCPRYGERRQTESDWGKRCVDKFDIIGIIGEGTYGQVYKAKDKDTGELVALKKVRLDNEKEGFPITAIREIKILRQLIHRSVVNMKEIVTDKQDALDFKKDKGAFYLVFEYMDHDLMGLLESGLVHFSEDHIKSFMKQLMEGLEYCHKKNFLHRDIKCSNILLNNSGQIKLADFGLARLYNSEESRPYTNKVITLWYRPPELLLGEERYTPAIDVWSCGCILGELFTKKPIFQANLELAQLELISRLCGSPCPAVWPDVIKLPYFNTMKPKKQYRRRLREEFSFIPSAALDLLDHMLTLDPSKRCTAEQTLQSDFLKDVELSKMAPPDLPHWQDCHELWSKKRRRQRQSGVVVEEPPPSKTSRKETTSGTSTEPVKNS
T1 sequence (O75909 whole entry partner, species assumed, the tested form may be a part): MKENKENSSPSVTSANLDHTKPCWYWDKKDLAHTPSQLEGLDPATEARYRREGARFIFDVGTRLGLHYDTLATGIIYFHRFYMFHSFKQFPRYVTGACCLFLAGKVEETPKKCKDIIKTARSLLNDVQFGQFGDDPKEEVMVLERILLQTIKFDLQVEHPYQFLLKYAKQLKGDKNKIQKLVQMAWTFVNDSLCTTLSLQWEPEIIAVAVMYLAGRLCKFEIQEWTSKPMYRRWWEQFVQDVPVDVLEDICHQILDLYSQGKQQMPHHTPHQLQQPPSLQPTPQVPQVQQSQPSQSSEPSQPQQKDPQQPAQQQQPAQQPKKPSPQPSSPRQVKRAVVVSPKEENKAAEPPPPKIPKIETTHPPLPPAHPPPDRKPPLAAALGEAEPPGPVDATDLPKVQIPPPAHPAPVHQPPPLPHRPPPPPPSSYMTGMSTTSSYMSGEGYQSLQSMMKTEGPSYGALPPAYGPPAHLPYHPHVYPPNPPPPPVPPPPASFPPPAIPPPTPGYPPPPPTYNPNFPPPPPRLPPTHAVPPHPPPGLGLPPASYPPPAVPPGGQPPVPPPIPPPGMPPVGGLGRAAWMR
How it was run: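 CDK12 (aa686-1082)/cyclinK complex at 50 nM was pre-incubated with compound for 10 min, then reacted 180 min at 27° C with ATP and 2 μM 5-FAM-CDK9tide in pH 6.5 MES buffer with 10 mM MgCl2. Reactions were EDTA-quenched and product resolved electrophoretically; IC50 from nonlinear curve fit.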

[3] = system: human breast cancer cells HCC70; assay: Cell biological activity detection (CyQuant, 72 hours), HCC70; type: cell-based; details: Homo sapiens, HCC70, 72 h, incubation for 72 hours
How it was run: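 IC50 derived from CyQuant Direct nuclear staining (488 nm excitation) after 72 h compound exposure at 37 °C, 5% CO2. Compounds tested in 9 concentrations from 10 μM, 1:4 steps, 0.2% DMSO, on A2780 or HCC70 cells plated overnight at 2000/well in RPMI 1640 + 10% FBS.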

CDK9/cyclinT1 complex = CDK9/cyclinT1 complex (Homo sapiens, UniProt P50750); assay: In-vitro enzymatic inhibitory activity testing, CDK9 inhibition assay (Caliper EZ Reader II); type: biochemical; details: CDK9/cyclinT1 8 nM, 180 min at 27° C.
Sequence of CDK9/cyclinT1 complex (P50750 whole entry, species assumed): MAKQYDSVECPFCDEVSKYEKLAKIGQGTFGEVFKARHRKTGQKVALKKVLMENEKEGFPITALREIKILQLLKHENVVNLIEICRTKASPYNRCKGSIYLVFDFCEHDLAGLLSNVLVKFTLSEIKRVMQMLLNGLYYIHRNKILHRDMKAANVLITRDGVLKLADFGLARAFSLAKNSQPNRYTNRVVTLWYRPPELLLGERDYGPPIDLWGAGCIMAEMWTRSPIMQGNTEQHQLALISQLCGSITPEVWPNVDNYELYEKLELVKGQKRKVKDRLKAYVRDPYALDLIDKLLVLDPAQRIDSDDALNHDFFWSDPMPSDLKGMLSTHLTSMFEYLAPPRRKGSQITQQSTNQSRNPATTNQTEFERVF
Sequence of CDK9/cyclinT1 complex (O60563 whole entry partner, species assumed): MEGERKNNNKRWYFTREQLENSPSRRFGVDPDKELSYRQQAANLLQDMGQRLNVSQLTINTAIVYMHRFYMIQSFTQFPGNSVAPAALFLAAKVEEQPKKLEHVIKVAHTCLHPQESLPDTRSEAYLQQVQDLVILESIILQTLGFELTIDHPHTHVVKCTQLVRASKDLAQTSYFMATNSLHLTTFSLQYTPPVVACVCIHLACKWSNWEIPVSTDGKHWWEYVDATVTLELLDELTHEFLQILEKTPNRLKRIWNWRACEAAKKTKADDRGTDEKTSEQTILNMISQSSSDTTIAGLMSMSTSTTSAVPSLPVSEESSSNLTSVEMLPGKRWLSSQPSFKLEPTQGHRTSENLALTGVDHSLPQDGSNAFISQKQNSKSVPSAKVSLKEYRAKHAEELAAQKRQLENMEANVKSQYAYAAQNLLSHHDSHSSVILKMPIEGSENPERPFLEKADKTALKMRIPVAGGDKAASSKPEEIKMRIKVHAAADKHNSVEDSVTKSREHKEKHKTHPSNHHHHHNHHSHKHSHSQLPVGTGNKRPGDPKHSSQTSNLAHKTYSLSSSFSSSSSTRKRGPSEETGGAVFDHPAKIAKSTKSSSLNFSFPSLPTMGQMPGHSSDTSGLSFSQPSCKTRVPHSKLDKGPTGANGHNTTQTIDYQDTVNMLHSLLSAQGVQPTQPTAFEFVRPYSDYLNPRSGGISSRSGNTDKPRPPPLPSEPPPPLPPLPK
How it was run: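 Phosphorylated and unphosphorylated fluorescent peptide were resolved by mobility-shift electrophoresis, with IC50 taken from a nonlinear regression of dose-response data. Reactions ran 180 min at 27 °C in MES buffer pH 6.5 with MgCl2, after 10 min enzyme–compound preincubation, using 8 nM CDK9/cyclinT1 and 5-FAM-CDK9tide.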

Sequence of CDK7/cyclinH/MAT1 complex (P50613 whole entry, species assumed): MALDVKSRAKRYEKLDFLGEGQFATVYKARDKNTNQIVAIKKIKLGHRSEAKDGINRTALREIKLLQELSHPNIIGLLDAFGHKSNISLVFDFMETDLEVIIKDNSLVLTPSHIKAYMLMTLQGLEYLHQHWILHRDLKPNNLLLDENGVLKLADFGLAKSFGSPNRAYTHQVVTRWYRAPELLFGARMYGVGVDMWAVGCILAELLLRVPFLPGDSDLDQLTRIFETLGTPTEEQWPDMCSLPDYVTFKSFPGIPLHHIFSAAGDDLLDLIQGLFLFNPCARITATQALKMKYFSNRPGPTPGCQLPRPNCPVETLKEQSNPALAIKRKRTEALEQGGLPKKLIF
Sequence of CDK7/cyclinH/MAT1 complex (P51946 whole entry partner, species assumed): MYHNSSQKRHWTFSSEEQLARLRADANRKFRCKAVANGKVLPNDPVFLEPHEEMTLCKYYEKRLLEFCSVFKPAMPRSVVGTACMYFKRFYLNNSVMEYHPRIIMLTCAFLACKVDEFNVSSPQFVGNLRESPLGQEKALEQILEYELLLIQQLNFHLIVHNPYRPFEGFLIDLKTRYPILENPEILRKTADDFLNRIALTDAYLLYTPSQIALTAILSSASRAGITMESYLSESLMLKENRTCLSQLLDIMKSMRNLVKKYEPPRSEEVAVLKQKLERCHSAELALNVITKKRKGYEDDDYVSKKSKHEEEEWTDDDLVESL
Sequence of CDK7/cyclinH/MAT1 complex (P51948 whole entry partner, species assumed): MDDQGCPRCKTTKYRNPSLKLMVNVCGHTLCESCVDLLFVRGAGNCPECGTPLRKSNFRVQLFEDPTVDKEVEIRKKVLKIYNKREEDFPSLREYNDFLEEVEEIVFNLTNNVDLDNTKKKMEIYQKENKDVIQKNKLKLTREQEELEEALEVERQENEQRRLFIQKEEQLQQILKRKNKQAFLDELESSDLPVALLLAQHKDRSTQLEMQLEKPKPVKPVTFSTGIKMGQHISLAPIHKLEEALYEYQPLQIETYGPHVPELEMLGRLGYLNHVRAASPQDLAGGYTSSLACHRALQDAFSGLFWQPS

SMILES: CP(C)(=O)c1cccc2c(-c3nc(NC4(CO)COC4)ncc3C(F)(F)F)c[nH]c12 [Compound 114, (3-(2-((3-(hydroxymethyl)oxetan-3-yl)amino)-5-(trifluoromethyl)pyrimidin-4-yl)-1H-indole-7-yl)dimethylphosphine oxide]
- IC50 [1]: < 0.02 µM
- IC50 [2]: > 50 µM
- IC50 [3]: < 0.02 µM
- IC50 (CDK9/cyclinT1 complex): > 50 µM

SMILES: CP(C)(=O)c1cccc2c(-c3nc(NCC4CC(O)C4)ncc3C(F)(F)F)c[nH]c12 (stereo not shown) [Compound 126, (3-(2-(((3-hydroxycyclobutyl)methyl)amino)-5-(trifluoromethyl)pyrimidin-4-yl)-1H-indole-7-yl)dimethylphosphine oxide]
- IC50 [1]: < 0.02 µM
- IC50 [2]: > 50 µM
- IC50 [3]: 0.02 to 0.2 µM
- IC50 (CDK9/cyclinT1 complex): > 50 µM

SMILES: CP(C)(=O)c1cccc2c(-c3nc(NC[C@H]4C[C@](C)(O)C4)ncc3C(F)(F)F)c[nH]c12 [Compound 127, (3-(2-(((trans-3-hydroxy-3-methylcyclobutyl)methyl)amino)-5-(trifluoromethyl)pyrimidin-4-yl)-1H-indole-7-yl)dimethylphosphine oxide]
- IC50 [1]: < 0.02 µM
- IC50 [2]: > 50 µM
- IC50 [3]: < 0.02 µM
- IC50 (CDK9/cyclinT1 complex): > 50 µM

SMILES: CN(C)[C@H]1CC[C@H](Nc2ncc(C(F)(F)F)c(-c3c[nH]c4c(P(C)(C)=O)cccc34)n2)C1 [Compound 137, (3-(2-(((1S,3S)-3-(dimethylamino)cyclopentyl)amino)-5-(trifluoromethyl)pyrimidin-4-yl)-1H-indole-7-yl)dimethylphosphine oxide]
- IC50 [1]: < 0.02 µM
- IC50 [2]: 0.2 to 5 µM
- IC50 [3]: < 0.02 µM
- IC50 (CDK9/cyclinT1 complex): 5 to 50 µM

SMILES: CP(C)(=O)c1cccc2c(-c3nc(N[C@@H]4CC[C@H]4O)ncc3C(F)(F)F)c[nH]c12 [Compound 153, (3-(2-(((1R,2R)-2-hydroxycyclobutyl)amino)-5-(trifluoromethyl)pyrimidin-4-yl)-1hydro-indole-7-yl)dimethylphosphine oxide]
- IC50 [1]: < 0.02 µM
- IC50 [2]: > 50 µM
- IC50 [3]: < 0.02 µM
- IC50 (CDK9/cyclinT1 complex): > 50 µM

SMILES: CP(C)(=O)c1cccc2c(-c3nc(N[C@H]4CC[C@@H]4O)ncc3C(F)(F)F)c[nH]c12 [Compound 154, (3-(2-(((1S,2S)-2-hydroxycyclobutyl)amino)-5-(trifluoromethyl)pyrimidin-4-yl)-1hydro-indole-7-yl)dimethylphosphine oxide]
- IC50 [1]: < 0.02 µM
- IC50 [2]: 5 to 50 µM
- IC50 [3]: < 0.02 µM
- IC50 (CDK9/cyclinT1 complex): 5 to 50 µM

SMILES: CP(C)(=O)c1cccc2c(-c3nc(N[C@H]4CCC[C@@H]4O)ncc3C(F)(F)F)c[nH]c12 [Compound 155, (3-(2-(((1S,2S)-2-hydroxycyclopentyl)amino)-5-(trifluoromethyl)pyrimidin-4-yl)-1hydro-indole-7-yl)dimethylphosphine oxide]
- IC50 [1]: < 0.02 µM
- IC50 [2]: 5 to 50 µM
- IC50 [3]: < 0.02 µM
- IC50 (CDK9/cyclinT1 complex): 5 to 50 µM

SMILES: CP(C)(=O)c1cccc2c(-c3nc(N[C@@H]4CCC[C@H]4O)ncc3C(F)(F)F)c[nH]c12 [Compound 156]
- IC50 [1]: 0.02 to 0.2 µM
- IC50 [2]: 5 to 50 µM
- IC50 [3]: < 0.02 µM
- IC50 (CDK9/cyclinT1 complex): 5 to 50 µM

SMILES: C[C@@H](CO)Nc1ncc(C(F)(F)F)c(-c2c[nH]c3c(P(C)(C)=O)cc(F)cc23)n1 [Compound 158]
- IC50 [1]: < 0.02 µM
- IC50 [2]: > 50 µM
- IC50 [3]: < 0.02 µM
- IC50 (CDK9/cyclinT1 complex): > 50 µM

SMILES: CP(C)(=O)c1cccc2c(-c3nc(NC4(CO)CCC4)ncc3C(F)(F)F)c[nH]c12 [Compound 168, (3-(2-((1-(hydroxymethyl)cyclobutyl)amino)-5-(trifluoromethyl)pyrimidin-4-yl)-1H-indole-7-yl)dimethylphosphine oxide]
- IC50 [1]: < 0.02 µM
- IC50 [2]: > 50 µM
- IC50 [3]: 0.02 to 0.2 µM
- IC50 (CDK9/cyclinT1 complex): > 50 µM

SMILES: CP(C)(=O)c1cccc2c(-c3nc(NC45CC(O)(C4)C5)ncc3C(F)(F)F)c[nH]c12 [Compound 174, (3-(2-((3-hydroxybicyclo[1.1.1]pentan-1-yl)amino)-5-(trifluoromethyl)pyrimidin-4-yl)-1H-indole-7-yl)dimethylphosphine oxide]
- IC50 [1]: < 0.02 µM
- IC50 [2]: 0.2 to 5 µM
- IC50 [3]: < 0.02 µM
- IC50 (CDK9/cyclinT1 complex): 5 to 50 µM

SMILES: C[C@@H](CO)Nc1ncc(C#N)c(-c2c[nH]c3c(P(C)(C)=O)cccc23)n1 [Compound 179, (S)-4-(7-(dimethylphosphoryl)-1H-indole-3-yl)-2-((1-hydroxypropan-2-yl)amino)pyrimidine-5-carbonitrile]
- IC50 [1]: < 0.02 µM
- IC50 [2]: 5 to 50 µM
- IC50 [3]: 0.02 to 0.2 µM
- IC50 (CDK9/cyclinT1 complex): > 50 µM

SMILES: C[C@@H](CO)Nc1ncc(C(F)(F)F)c(-c2c[nH]c3c(P(C)(C)=O)c(F)ccc23)n1 [Compound 195]
- IC50 [1]: < 0.02 µM
- IC50 [2]: 5 to 50 µM
- IC50 [3]: < 0.02 µM
- IC50 (CDK9/cyclinT1 complex): > 50 µM
